According to patent US20150366252A1, “SWEETENER ENHANCERS AND METHODS FOR USING THE SAME” (International Flavors & Fragrances Inc., priority 2014, published 2015):

Tested on: human panelists (sweet taste of glucose)
Assay: Glucose enhancement test: paired-comparison human panelist taste test
Assay type: in vivo
Conditions: for glucose concentration perceived by panelists as equally sweet (as sweet as): composition of 7% glucose + 8 ppm compound; for glucose enhancement effects (overall statement): human panelist taste test, 7% glucose + 8 ppm compound
Experimental: Compounds 1-3 were tested for glucose sweetness enhancement by human panelist taste tests. Test samples containing the compound of interest were tasted in pairs by the panelist to determine which of the samples were sweeter. Binominal distribution for two-sided pair comparisons were used to determine the probability of the correct number of responses at α=0.05 (95% confidence level).

[1] = 7% glucose + 8 ppm compound vs 8.5% glucose
[2] = 7% glucose + 8 ppm compound vs 8.5% glucose, 12 panelists × 2 reps

SMILES | sweetness perceived by panelists relative to 8.5% glucose [1] | glucose concentration perceived by panelists as equally sweet (as sweet as) | Total (sample selected as sweeter by panelists) [2] | glucose enhancement effects (overall statement) | other results
NC1=NS(=O)(=O)Nc2cccc(OCC3(C(=O)NC4CCCC4)CCCNC3=O)c21 (stereo not shown) [Compound 1, 3-(((4-Amino-2,2-dioxido-1H-benzo[c][1,2,6]thiadiazin-5-yl)oxy)methyl)-N-cyclopentyl-2-oxopiperidine-3-carboxamide] | significantly sweeter | 10 % glucose | – | – | Total (sample selected as sweeter by panelists) (7% glucose + 8 ppm compound vs 9.5% glucose, paired comparison): 17; Total (sample selected as sweeter by panelists) (7% glucose + 8 ppm compound vs 10% glucose, paired comparison): 11; Total (sample selected as sweeter by panelists) (7% glucose + 8 ppm compound vs 10.5% glucose, paired comparison): 6
CC(C)NC(=O)C1(COc2cccc3c2C(N)=NS(=O)(=O)N3)CCCNC1=O (stereo not shown) [Compound 2, 3-(((4-amino-2,2-dioxido-1H-benzo-[c][1,2,6]thiadiazin-5-yl)oxy)methyl)-N-isopropyl-2-oxopiperidine-3-carboxamide] | significantly sweeter | – | 23 | – | –
NC1=NS(=O)(=O)Nc2cccc(OCC3(C(=O)NC4CCCCC4)CCCNC3=O)c21 (stereo not shown) [Compound 3, 3-(((4-amino-2,2-dioxido-1H-benzo[c][1,2,6]thiadiazin-5-yl)oxy)methyl)-N-cyclohexyl-2-oxopiperidine-3-carboxamide] | significantly sweeter | 9 % glucose | 21 | – | Total (sample selected as sweeter by panelists) (7% glucose + 8 ppm compound vs 9% glucose, 12 panelists × 2 reps): 14
CCCNC(=O)C(C)(C)COc1cccc2c1C(N)=NS(=O)(=O)N2 [FEMA 4701, reference compound] | significantly less sweet | 8 % glucose | 21 | only showed marginal glucose enhancement effects | Total (sample selected as sweeter by panelists) (7% glucose + 8 ppm compound vs 8% glucose, 12 panelists × 2 reps): 13
Cc1nc2cccc(OCC(C)(C)C(=O)NC(C)C)c2c(N)c1C(=O)O [FEMA 4774, reference compound] | – | – | – | did not show significant glucose enhancement effects | sweetness perceived by panelists relative to 7% glucose (7% glucose + 8 ppm compound vs 7% glucose): only being directionally sweeter; Total (sample selected as sweeter by panelists) (7% glucose + 8 ppm compound vs 7% glucose, 12 panelists × 2 reps): 17
